Target: Phosphatidylinositol 4-kinase type 2-alpha (Homo sapiens, UniProt Q9BTU6)
Assay: Inhibition of Phosphatidylinositol 4-kinase of human epidermoid carcinoma A431 cells

Phosphatidylinositol 4-kinase type 2-alpha, sequence (Q9BTU6 whole entry): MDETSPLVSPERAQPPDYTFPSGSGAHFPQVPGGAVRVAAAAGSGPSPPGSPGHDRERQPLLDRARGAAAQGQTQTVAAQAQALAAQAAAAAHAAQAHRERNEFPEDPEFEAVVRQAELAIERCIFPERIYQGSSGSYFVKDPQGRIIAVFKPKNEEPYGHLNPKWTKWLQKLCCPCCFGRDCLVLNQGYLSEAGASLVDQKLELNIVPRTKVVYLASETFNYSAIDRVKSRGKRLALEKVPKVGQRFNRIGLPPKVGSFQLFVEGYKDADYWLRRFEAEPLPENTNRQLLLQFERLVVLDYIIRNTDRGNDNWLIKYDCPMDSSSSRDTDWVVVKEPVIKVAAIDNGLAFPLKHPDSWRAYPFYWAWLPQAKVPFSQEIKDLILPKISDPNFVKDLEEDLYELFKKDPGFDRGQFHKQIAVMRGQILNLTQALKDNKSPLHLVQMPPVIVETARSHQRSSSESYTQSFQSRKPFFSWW

N=C(N)CCNC(=O)c1c[nH]c2nc(N)nc(O)c12 [ECHIGUANINE A]
IC50: 0.113 µM
